In data set [1] the test system is Aβ42 production by human neuroblastoma SH-SY5Y cells. Put plainly: Aβ42 production by SH-SY5Y cells, sandwich ELISA of conditioned medium. Particulars: for activity in reducing the production of Aβ42 (in words): cell-based assay. A general note: ELISA stands for enzyme-linked immunosorbent assay.
Experimental: We used the human Neuroblastoma SH-SY5Y cells for drug testing as a model for Aβ42 production. The cells were cultured in Dulbecco's modified Eagle's medium or Dulbecco's modified Eagle's medium/Ham's F-12 medium supplemented with 10% fetal bovine serum, 100 units/ml penicillin, and 100 μg/ml streptomycin in a humidified atmosphere of 95% air, 5% CO2 at 37° C. as per suppliers instructions. […] Cell toxicity was monitored using the MTT assay and all data reported are corrected for any cell loss.
Sandwich Enzyme-Linked Immunosorbent Assay (sELISA) for Quantization of Aβ42:
The capture antibody, detection antibody and secondary antibody as well as standard purified preparations of Aβ42 were obtained from Sigma-Aldrich. Cells were cultured for 24 h in the presence or absence of compounds and the conditioned medium was subjected to sELISA.
The nature of data set [2]: In vivo pharmacokinetics (plasma and brain niacin and eugenol by HPLC). Details: species or system male Swiss Albino mice. Particulars: male, Swiss Albino, mouse. Here is the method: In vivo pharmacokinetic (PK) studies were conducted in male Swiss Albino mice. Niacin-Eugenol physical mixture or Niacin-Eugenol hybrid cocrystal was administered to the animals at a dose of 0.73 mmol/kg orally (n=2 mice per time point). […] Plasma was separated by centrifugation at 4000 rpm for 10 minutes and stored in ice for analysis. Animals were sacrificed at the above time points; and brains were excised, snap frozen in liquid nitrogen and stored at −80° C. Samples were analyzed by high-performance liquid chromatography (HPLC) with UV detection. […] The precipitated proteins were removed by centrifugation at 15000 rpm at 5° C. for 10 min. The supernatant was collected in HPLC vials and kept at 4° C. for analysis. 200 mg of the brain tissue was homogenized in Acetonitrile. The resultant homogenate was centrifuged at 15000 rpm for 10 minutes at 4° C. […] Pharmacokinetic parameters were calculated using WinNonLin v5.2 software. The plasma and brain samples were analyzed for Niacin and Eugenol concentrations using HPLC under the conditions shown below: […]

The test system of data set [3] is human APP overexpressing Drosophila. As to the kind of experiment: Survival of human APP overexpressing Drosophila transgenic model. The data set is classed as in vivo, Drosophila melanogaster. The note with it: 100 mg/kg body weight/day with the food. As to the method: The effect of cocrystal of niacin-eugenol/eugenol was tested in a Drosophila model which over expresses the human APP protein. The creation of the APP over expressing flies and other methods for these studies are as described previously by Greeve et al (See J. Neuroscience, 2004, 24:3899-3906). The targeted over/ectopic expression of APP in the brain using UAS promoter driven APP transgene, induced by a specific GAL4 trans-driver in the Drosophila model system was used. Adult flies, a total of 80 flies (4 males and 4 females per tube, 10 tubes) were fed right after their emergence and the survival was examined until the end of 9th day. The drugs to be tested were delivered with the food.

Setting [4] is: Homo sapiens, SH-SY5Y, read-out: IC50 (μM) in cell based abeta assay.

Read-outs that look alike come from different tables or passages of the source.

For orientation: IC50 means the concentration needed to halve the response being measured.

For the compound `COc1cc(C(C)=O)ccc1OC(=O)c1cccnc1` [Niacin-apocynin hybrid], in data set [1] (setting [4]), the IC50 stood at 25.3 µM.
Turning to `CCCc1ccc(OC(=O)c2cccnc2)c(OC)c1` [Niacin-dihydro eugenol hybrid], the IC50 in data set [1] (read-out: IC50 (μM) in cell based abeta assay, blocking Aβ42 secretion) is over 50 µM.
Consider `COc1cc(CC2CO2)ccc1OC(=O)c1cccnc1` (stereo not drawn) [Niacin-eugenol epoxide hybrid], for which, in data set [1] (setting [4]), the IC50 was found to be 17.5 µM.
For `C=CCc1ccc(OC(=O)c2cccnc2)c(OC)c1` [Niacin-eugenol hybrid, Nicotinic acid 4-allyl-2-methoxy-phenyl ester], the “increase in Tmax for eugenol compared to physical mixture” value in data set [2] worked out at 4 fold. Besides, in data set [1] (setting [4]), the IC50 is 14 µM. Also, the “activity in reducing the production of Aβ42 (in words)” value in data set [1] is given as “most active among the series”; in data set [1] (listed as niacin-eugenol ester linked hybrid), “most potent”.
Consider `COc1cc(/C=C/C(=O)O)ccc1OC(=O)c1cccnc1` [Niacin-ferulic acid hybrid], for which, in data set [1] (setting [4]), the IC50 is over 50 µM.
With `COc1ccc(/C=C\C(=O)O)cc1OC(=O)c1cccnc1` [Niacin-isofreulic acid hybrid], the IC50 in data set [1] (setting [4]) amounted to 36.8 µM.
In the case of `COc1cc(C=O)ccc1OC(=O)c1cccnc1` [Niacin-vanillin hybrid, Nicotinic acid 4-formyl-2-methoxy-phenyl ester], in data set [1] (setting [4]), the IC50 came to 44.6 µM.
Turning to `O=C(O)c1cccnc1` [niacin, pyridine-3-carboxylic acid], in data set [1] (5 μM cinnamic acid versus niacin alone), the “reduction of niacin IC50 in the presence of cinnamic acid” value was “about 15%”. For the same compound, in data set [1] (5 μM curcumin versus niacin alone), the “reduction of niacin IC50 in the presence of curcumin” value was “about 27%”. The “reduction of niacin IC50 in the presence of eugenol” value in data set [1] (5 μM eugenol versus niacin alone) is “about 45%”. Besides, the “reduction of niacin IC50 in the presence of meclofenamic acid” value in data set [1] (5 μM meclofenamic acid versus niacin alone) is “about 33%”. Moreover, the “inhibitory effect of niacin on Aβ42 levels in the media” value in data set [1] (5 and 10 μM niacin) is “good effect”. In addition, the “inhibition of Aβ42 levels in the media” value in data set [1] (25 and 50 μM niacin) is 100%. The IC50 was 9.8 µM in data set [1] (Homo sapiens, SH-SY5Y, read-out: IC50 of niacin in the presence of cinnamic acid, in the presence of 5 μM of cinnamic acid); 7.5 µM in data set [1] (Homo sapiens, SH-SY5Y, read-out: IC50 of niacin in the presence of curcumin, in the presence of 5 μM of curcumin); 5.9 µM in data set [1] (Homo sapiens, SH-SY5Y, read-out: IC50 of niacin in the presence of eugenol, in the presence of 5 μM of eugenol); 7 µM in data set [1] (Homo sapiens, SH-SY5Y, read-out: IC50 of niacin in the presence of meclofenamic acid, in the presence of 5 μM of meclofenamic acid); 10.6 µM in data set [1] (Homo sapiens, SH-SY5Y, read-out: IC50 of niacin's inhibitory effect on Aβ42 production, niacin alone, SH-SY5Y cells, overnight incubation); about 10.2 µM in data set [1] (read-out: IC50 of niacin's inhibitory effect on Aβ42 production, niacin alone, SH-SY5Y cells, overnight incubation).
In the case of `Oc1ccc(C=Cc2cc(O)cc(O)c2)cc1` [resveratrol], the “effect on survival compared to untreated flies” value in data set [3] (early time points) is “modest effect”. For the same compound, the “effect on number of surviving flies compared to untreated flies” value in data set [3] (end of 9th day (FIG. 7)) is “no statistically different effect”.

The record behind these values is patent US20130338199A1, “Novel Niacin Compositions for Reduction of Amyloid Beta Peptide 42 (AB42) Production and for Treatment of Alzheimer's Disease” (priority 2008, published 2013).
